From the NIST ThermoML archive (doi:10.1016/j.jct.2009.06.014)

Assays:
[1] = xn = mol fraction of the nth substance listed; conditions: 101 kPa, Liquid, Vibrating tube method
[2] = wn = mass fraction of the nth substance listed; conditions: 101 kPa, Liquid, Vibrating tube method

C1CCOC1 [tetrahydrofuran] + O
mass density [kg/m3], [1]
Conditions	293.15 K	298.15 K	303.15 K	308.15 K	313.15 K	318.15 K	323.15 K	328.15 K	333.15 K
x2 = 0	889.47	885.04	880.76	876.63	872.62	868.72	864.91	861.19	855.57
x2 = 0.307	909.02	904.73	900.6	896.6	892.72	888.93	885.23	881.59	878.02
x2 = 0.5048	927.43	923.37	919.45	915.67	912.03	908.48	905.02	901.65	898.3
x2 = 0.6429	944.68	940.84	937.15	933.61	930.19	926.87	923.65	920.5	917.43
x2 = 0.8027	968.99	965.85	962.77	959.82	956.98	954.25	951.59	949.01	946.48
x2 = 0.8555	979.39	976.67	974.08	971.62	969.26	966.98	964.79	962.66	960.59
x2 = 0.9025	987.96	986.24	984.38	982.6	980.91	979.36	977.79	976.28	974.8
x2 = 0.9402	992.74	991.5	990.32	989.18	988.11	987.04	986	985.02	983.98
x2 = 0.9719	995.94	995.45	994.98	994.52	994.07	993.63	993.19	992.76	992.33

CCCC[N+](CCCC)(CCCC)CCCC.[Br-] [tetrabutylammonium bromide] + O
mass density [kg/m3], [2]
Conditions	w1 = 0.0697	w1 = 0.0999	w1 = 0.15	w1 = 0.1996	w1 = 0.25	w1 = 0.2998	w1 = 0.3499	w1 = 0.4002	w1 = 0.4498	w1 = 0.5
293.15 K	1003.85	1006.63	1011.35	1017.09	1021.73	–	1030.98	1036.25	1041.41	1044.73
298.15 K	1002.43	1005.08	1009.55	1015.11	1019.26	1027.44	1027.91	1032.9	1037.83	1041.06
303.15 K	1000.8	1003.31	1007.54	1012.76	1016.66	1024.31	1024.77	1029.49	1034.23	1037.36
308.15 K	998.95	1001.34	1005.34	1010.24	1013.92	1021.1	1021.55	1026.04	1030.59	1033.62
313.15 K	996.91	999.19	1002.97	1007.59	1011.06	1017.82	1018.26	1022.53	1026.92	1029.85
318.15 K	994.7	996.86	1000.45	1004.8	1008.08	1014.47	1014.9	1018.98	1023.21	1026.05
323.15 K	992.32	994.38	997.78	1001.88	1005	1011.05	1011.47	1015.38	1019.46	1022.22
328.15 K	989.78	991.74	994.96	998.84	1001.81	1007.56	1007.97	1011.71	1015.67	1018.35
333.15 K	987.09	988.96	992	995.69	998.5	1004	1004.4	1008	1011.83	1014.45
